Measured values taken from patent US6469168B1, “Piperazinylalkylthiopyrimidine derivatives, pharmaceutical compositions containing the same, and a process for the preparation of the active substance” (EGIS Gyógyszergyár Rt., priority 1999, dated 2002).
Where a name gives a salt, the structure may show the parent alone. Read-outs that look alike come from different tables or passages of the source.

What was measured:
male SPRD rats = assay: Elevated plus-maze test; assay type: in vivo, rat; details: for minimal effective dose: Rattus norvegicus, po, 1 h, read-out: Minimum effective dose
Experimental: 1. Elevated Plus-Maze Test
The tests were carried out on male SPRD rats weighing 220 to 260 g. Each group of animal consisted of 8 to 10 pieces of rat. The substance to be examined or the vehicle (i.e. distilled water or a 0.4% solution of methylcellulose) was administered to the animals in a volume of 5 ml/kg as a solution or suspension per os 60 minutes prior to the test.
The elevated plus-maze consists of two open and two 40 cm wall enclosed arms of the same size (50×15 cm) arranged in the shape of a cross. The arms of the same type are opposite to each other. The junction of the four arms forms a central square area (15×15 cm). The apparatus is made of a wooden material elevated to a height of 50 cm and illuminated by a dim light from above. The essence of the method is that during the exploration of the apparatus, the animals spend considerably more time in the closed arms than in the open arms due to the natural fear from open space and height. […] Methods., 14, 149-167 (1985)].

male NMRI mice = assay: Determination of the spontaneous motor activity; details: p.o., 60 minutes prior to the test, dose producing 50% of inhibition of motor activity
Experimental: 2. Determination of the Spontaneous Motor Activity
For the experiments, male NMRI mice weighing 20 to 25 g were used. Each treatment group consisted of 10 mice. The substance to be examined or the vehicle (i.e. a 0.4% solution of methylcellulose) was administered to the animals in a volume of 20 ml/kg as a suspension per os 60 minutes prior to the test. […] In case of anxiolytics, the value of the anxiolytic effect depends on the presence or absence of the sedative action (the latter is […]). For the experiments, an apparatus “digital motimeter” having 10 measuring places was used. The motion of the animals was indicated by the interruption of three parallel beams of infrared light at each measuring place, and the interruptions were recorded by the apparatus. The activity of one animal was determined at each measuring place. […] Int.

[1] = p.o., 60 minutes prior to the test, male SPRD rats, time spent in and entries into open arms

Row | Molecule | melting point | minimal effective dose (male SPRD rats; [1]) | ID50 (male NMRI mice) | further results
1 | Nc1nc(SCCN2CCNCC2)nc(N)c1Cc1ccc(F)cc1 (as salt: hydrochloride) (hydrate or solvate) [Example 19, 4,6-Diamino-2-[2-(1-piperazinyl)ethylthio]-5-(4-fluorobenzyl)-pyrimidine trihydrochloride hydrate] | 168 to 170 °C | – | – | –
2 | COc1ccccc1Cc1c(N)nc(SCCN2CCN(CCCN(C)C)CC2)nc1N [Example 26, 4,6-Diamino-2-{2-[4-(3-dimethylaminopropyl)-1-piperazinyl]-ethylthio}-5-(2-methoxybenzyl)pyrimidine tetrahydrochloride hydrate] | – | 0.3 mg/kg | >100 mg/kg | –
3 | COc1ccccc1Cc1c(N)nc(SCCCCN2CCNCC2)nc1N [Example 18, 4,6-Diamino-2-[4-(1-piperazinyl)butylthio]-5-(2-methoxybenzyl)-pyrimidine trihydrochloride] | – | 1 mg/kg | >100 mg/kg | –
4 | COc1ccccc1Cc1c(N)nc(SCCCN2CCNCC2)nc1N [Example 10, 4,6-Diamino-2-[3-(1-piperazinyl)propylthio]-5-(2-methoxy-benzyl)pyrimidine trihydrochloride] | – | 1 mg/kg | – | –
5 | COc1ccccc1Cc1c(N)nc(SCCN2CCN(C(C)=O)CC2)nc1N [Example 16, 4,6-Diamino-2-[2-(4-acetyl-1-piperazinyl)ethylthio]-5-(2-methoxybenzyl)pyrimidine] | 198.5 to 199.5 °C | 3 mg/kg | >100 mg/kg | –
6 | COc1ccccc1Cc1c(N)nc(SCCCN2CCNCC2)nc1N (as salt: hydrochloride) [Example 10, 4,6-Diamino-2-[3-(1-piperazinyl)propylthio]-5-(2-methoxy-benzyl)pyrimidine trihydrochloride] | 197 to 198 °C | – | – | –
7 | 4,6-Diamino-2-[2-/4-(2-dimethylaminoethyl)-1-piperazinyl/-ethyl-thio]-5-(2-methoxybenzyl)pyrimidine tetrahydrochloride dihydrate [Example 6] | – | – | >100 mg/kg | Minimum effective dose (male SPRD rats; [1]): 0.03 mg/kg
8 | COc1ccccc1Cc1c(N)nc(SCCN2CCNCC2)nc1N [1 (besylate), 4,6-Diamino-5-(2-methoxybenzyl)-2-[2-(1-piperazinyl)ethylthio]-pyrimidine] | – | – | >90 mg/kg | Minimum effective dose (male SPRD rats; [1]): 1 mg/kg
9 | COc1ccccc1Cc1c(N)nc(SCCN2CCN(C(C)C)CC2)nc1N [Example 5, 4,6-Diamino-2-[2-(4-isopropyl-1-piperazinyl)ethylthio]-5-(2-methoxybenzyl)pyrimidine trihydrochloride hydrate] | – | 3 mg/kg | >100 mg/kg | –
10 | 4,6-Diamino-2-[4-(4-methyl-1-piperazinyl)ethylthio]-5-(2-ethoxybenzyl)pyrimidine trihydrochloride hydrate [Example 13] | – | – | – | Minimum effective dose (male SPRD rats; [1]): 1 mg/kg
11 | COc1ccccc1Cc1c(N)nc(SCCCCN2CCN(C)CC2)nc1N [Example 8, 4,6-Diamino-2-[4-(4-methyl-1-piperazinyl)butylthio]-5-(2-methoxybenzyl)pyrimidine trihydrochloride hydrate] | – | 3 mg/kg | >100 mg/kg | –
12 | COc1ccccc1Cc1c(N)nc(SCCCCN2CCN(C)CC2)nc1N (as salt: hydrochloride) (hydrate or solvate) [Example 8, 4,6-Diamino-2-[4-(4-methyl-1-piperazinyl)butylthio]-5-(2-methoxybenzyl)pyrimidine trihydrochloride hydrate] | 202 °C | – | – | –
13 | Nc1nc(SCCN2CCNCC2)nc(N)c1Cc1ccc(F)cc1 [Example 19, 4,6-Diamino-2-[2-(1-piperazinyl)ethylthio]-5-(4-fluorobenzyl)-pyrimidine trihydrochloride hydrate] | – | 0.01 mg/kg | >100 mg/kg | –
14 | CN1C(=O)CN=C(c2ccccc2)c2cc(Cl)ccc21 [diazepam, 7-chloro-1,3-dihydro-1-methyl-5-phenyl-2H-1,4-benzodiazepine-2-one, reference compound] | – | – | – | minimal effective dose (male SPRD rats): 1 mg/kg
15 | 4,6-Diamino-5-(2-methoxybenzyl)-2-[2-(1-piperazinyl)ethylthio]-pyrimidine fumarate [Example 2] | – | – | >100 mg/kg | Minimum effective dose (male SPRD rats; [1]): 1 mg/kg
16 | COc1ccccc1Cc1c(N)nc(SCCN2CCN(CCCN(C)C)CC2)nc1N (as salt: hydrochloride) (hydrate or solvate) [Example 26, 4,6-Diamino-2-{2-[4-(3-dimethylaminopropyl)-1-piperazinyl]-ethylthio}-5-(2-methoxybenzyl)pyrimidine tetrahydrochloride hydrate] | 262 to 264 °C | – | – | –
17 | COc1ccccc1Cc1c(N)nc(SCCCN2CCN(C(C)=O)CC2)nc1N [Example 12, 4,6-Diamino-2-[3-(4-acetyl-1-piperazinyl)propylthio]-5-(2-methoxybenzyl)pyrimidine] | 208 to 209 °C | 1 mg/kg | – | –
18 | COc1ccccc1Cc1c(N)nc(SCCCN2CCN(C=O)CC2)nc1N [Example 9, 4,6-Diamino-2-[3-(4-formyl-1-piperazinyl)propylthio]-5-(2-methoxybenzyl)pyrimidine] | 174 to 176 °C | 3 mg/kg | – | –
19 | COc1ccccc1Cc1c(N)nc(SCCN2CCNCC2)nc1N [Example 1 (fumarate), 4,6-Diamino-5-(2-methoxybenzyl)-2-[2-(1-piperazinyl)ethylthio]-pyrimidine] | – | – | >100 mg/kg | Minimum effective dose (male SPRD rats; [1]): 3 mg/kg
20 | Nc1nc(SCCCN2CCNCC2)nc(N)c1Cc1ccc(Cl)cc1 [Example 17, 4,6-Diamino-2-[3-(1-piperazinyl)propylthio]-5-(4-chlorobenzyl)-pyrimidine trihydrochloride trihydrate] | – | 1 mg/kg | >100 mg/kg | –
21 | Nc1nc(SCCCN2CCNCC2)nc(N)c1Cc1ccc(Cl)cc1 (as salt: hydrochloride) (hydrate or solvate) [Example 17, 4,6-Diamino-2-[3-(1-piperazinyl)propylthio]-5-(4-chlorobenzyl)-pyrimidine trihydrochloride trihydrate] | 187 °C | – | – | –
22 | COc1ccccc1Cc1c(N)nc(SCCCCN2CCNCC2)nc1N (as salt: hydrochloride) [Example 18, 4,6-Diamino-2-[4-(1-piperazinyl)butylthio]-5-(2-methoxybenzyl)-pyrimidine trihydrochloride] | 255 °C | – | – | –
23 | CCOc1ccccc1Cc1c(N)nc(SCCCN2CCN(C=O)CC2)nc1N [Example 7, 4,6-Diamino-2-[3-(4-formyl-1-piperazinyi)propylthio]-5-(2-ethoxybenzyl)pyrimidine] | – | – | >100 mg/kg | Minimum effective dose (male SPRD rats; [1]): <1 mg/kg
24 | COc1ccccc1Cc1c(N)nc(SCCN2CCN(C(C)C)CC2)nc1N (as salt: hydrochloride) (hydrate or solvate) [Example 5, 4,6-Diamino-2-[2-(4-isopropyl-1-piperazinyl)ethylthio]-5-(2-methoxybenzyl)pyrimidine trihydrochloride hydrate] | 253 to 255 °C | – | – | –
25 | 4,6-Diamino-2-[2-(4-methyl-1-piperazinyl)propylthio]-5-(2-methoxybenzyl)pyrimidine trihydrochloride hydrate [Example 4] | – | – | 32.8 mg/kg | Minimum effective dose (male SPRD rats; [1]): 1 mg/kg
26 | CC(C)c1ccc(Cc2c(N)nc(SCCN3CCNCC3)nc2N)cc1 [Example 25, 4,6-Diamino-2-[2-(1-piperazinyl)ethylthio]-5-(4-isopropylbenzyl)-pyrimidine] | 63 to 64 °C | – | – | –
27 | 4,6-Diamino-2-[3-(1-piperazinyl)ethylthio]-5-(2-ethoxybenzyl)-pyrimidine trihydrochloride trihydrate [Example 14] | – | – | – | Minimum effective dose (male SPRD rats; [1]): 1 mg/kg
